The source of these data is patent US10471032B1, “Substituted glutaurine compounds and substituted glutaurine derivatives” (ThermoLife International, LLC, priority 2013, dated 2019).

For test [1], the system named is estradiol and total testosterone. As to conditions: men treated, Taxel et al. (2001); cited from earlier work.
For a further test, the system named is triiodothyronine (T3). Description: Total T3 level in blood samples during oral administration to a human subject. The settings on record: for T3: total T3, blood, one human subject, Day 0 before dosing 91. In kind it is in vivo. The method, then:
(§1) To evaluate the effect of administration of glutaurine on estradiol and thyroid hormone levels in a human subject, approximately 800 micrograms (mcg) per day of glutaurine were administered orally to the subject over a period of about one month. At Day 0 prior to administration of the glutaurine and at Day 4 and Day 28 during administration of the glutaurine blood samples were collected and analyzed for the levels of estradiol, thyroid stimulating hormone (TSH), and the thyroid hormones triiodothyronine (T3) and thyroxine (T4). Total amounts of T3 and T4 were measured in the blood samples.

The next test deals with human subject. Description: Subject-reported effects during administration. As to conditions: oral approx. 800 mcg/day. The format is in vivo. The method, then:
as §1
The subject also reported fat loss as a result of the glutaurine administration.

The next test has as its system estradiol. Description: Estradiol level in blood samples during oral administration to a human subject. In kind it is in vivo. As to conditions: for Estradiol: blood, one human subject, Day 0 before dosing 36. The method, then: as §1
The test system of another test is thyroxine (T4). Description: Total T4 level in blood samples during oral administration to a human subject. The settings on record: for T4: total T4, blood, one human subject, Day 0 before dosing 8.3. In kind it is in vivo. The method, then: as §1
The test system of test [2] is thyroid stimulating hormone (TSH). Description: TSH level in blood samples during oral administration to a human subject. As to conditions: for TSH: blood, one human subject, Day 0 before dosing 3.01. The format is in vivo. The method, then:
as §1

The mark [3] stands for this setting: oral approx. 800 mcg/day for about one month, human subject.
[4] abbreviates: Day 4 of oral approx. 800 mcg/day.
[5] abbreviates: Day 28 of oral approx. 800 mcg/day.
[6] abbreviates: indicative of rising energy expenditure and metabolism.

Take `CC(C)(C#N)c1cc(Cn2cncn2)cc(C(C)(C)C#N)c1` [anastrozole]: in test [1], the change in estradiol result is recorded as “significant decrease” and the “change in total testosterone” value is on record as “increase”.
`NC(CCC(=O)NCCS(=O)(=O)O)C(=O)O` (centres unmarked) [glutaurine]: in the test with triiodothyronine (T3) (setting [3]), the “change in T3 levels” value is on record as “consistent increase”. The T3 in the test on triiodothyronine (T3) (setting [4]) was determined as 96 ng/dL; in the test on triiodothyronine (T3) (setting [5]), 109 ng/dL. In the test with human subject, the “body fat (subject-reported)” value was “fat loss”. Also, the “body temperature (subject-reported)” value with human subject (setting [6]) was “increased body temperature”. Besides, the “sweating (subject-reported)” value in the test on human subject (setting [6]) is “increased sweating”. The Estradiol with estradiol (setting [4]) was found to be 32 pg/mL; in the test on estradiol (setting [5]) it was 30 pg/mL. Moreover, the “change in estradiol levels” value with estradiol (setting [3]) is on record as “marked decrease”. Besides, in the test on thyroxine (T4) (setting [3]), the “change in T4 levels” value was “slightly reduced”. Also, the T4 was 7.9 µg/dL in the test with thyroxine (T4) (setting [4]) and 7.3 µg/dL with thyroxine (T4) (setting [5]). The TSH in test [2] (setting [4]) is given as 3.28 mIU/L; in test [2] (setting [5]), 2.74 mIU/L. Besides, the “change in TSH levels” value in test [2] (setting [3]) was “no significant change”.
